The target of one test is T1, IKZF3 (Aiolos) (Homo sapiens, UniProt Q96SW2+Q9UKT9).
T1 construct: mScarlet (C, cleaved yes); expressed in transfected cells
Kind of test: Stable cell line fluorescent reporter degradation assay, IKZF3. The following applies: HEK 293T IKZF3-mNeonGreen reporter cells, 24 hour incubation, calculated visually from the curves; for Dmax at 10 µM: 10 micromolar. It is filed as cell-based. The text has this:
(§1) Polycistronic plasmids were constructed for the mammalian expression of fluorescent reporter fusions of human transcription factors IKZF1 (Ikaros) and IKZF3 (Aiolos). The respective protein sequences had their C-terminal end joined to a GGGGS linker repeated three times followed by mNeonGreen, P2A sequence, and mScarlet. IKZF1 expression was driven by a CMV promoter while IKZF3 was EF1α promoter driven. The plasmids contained the HygR resistance gene for positive selection of cells with genomic integration of the reporter constructs. The plasmids were transfected using cationic lipid reagents into adherent HEK 293T cells and stable integrants were selected by treatment with 200 ug/mL hygromycin B. Clonal populations were obtained from the population of stable integrants either by limiting dilution or fluorescence activated cell sorting. The clonal stable cell lines were maintained under constant 200 ug/mL hygromycin B selection while being passaged for use in the degradation assays. The fluorescence intensity of the IKZF1/2/3-mNeonGreen (FITC channel) and mScarlet (PE channel) reporters were routinely analyzed by flow cytometry to confirm consistent expression levels between experiments.
(§2) Representative compounds were evaluated for their ability to degrade IKZF1 and IKZF3 in the following assay.
(§3) The IKZF1/IKZF3 degradation assays were carried out by harvesting the HEK 293T reporter cell lines and resuspending the cells in media formulated for reduced background fluorescence. The respective cell lines were seeded at a density of 4,000 cells/well into black-walled 384-well optical grade assay plates pre-coated by the manufacturer with PDL. The cells were incubated overnight to allow for attachment to the assay plate (37° C. with humidified air and 5% CO2 for all incubations). Dilutions of the compounds were prepared in dimethyl sulfoxide (DMSO) from 10 mM compound stock solutions in DMSO. The assay plates were treated with appropriate concentrations of the compounds by dispensing the DMSO dilutions in quadruplicate wells with an upper limit of 0.5% final DMSO.
(§4) After a 24 hour incubation with the compounds, the assay plates were imaged on an ImageXpress Pico microscopy system (cells maintained at 37° C. during imaging) to obtain the fluorescent readouts. The assay plates were imaged in the FITC and TRITC channels to obtain the mNeonGreen fluorescence intensity (reporter degradation data) and mScarlet fluorescence intensity (for cell segmentation), respectively. 293T-IKZF1 and 293T-IKZF3 reporter cell lines were imaged with exposures of 500 milliseconds (ms) for both FITC and TRITC channels. The resulting data was analyzed with Cell Reporter Xpress software using the 2-channel cell scoring analysis with a “percent positive” readout. The TRITC channel was selected for the “nuclei” segmentation with a threshold of 20 while the FITC channel was selected for the “Marker 1” segmentation and a threshold of 100 for the IKZF1 and IKZF3 reporter lines. The minimum segmentation width was set to 6 micrometers and the maximum segmentation width was set to 15 micrometers for all cell lines.
(§5) The percent degradation amounts were calculated visually from the curves generated at a concentration of 10 micromolar.

The next test addresses T2, IKZF1 (Ikaros) (Homo sapiens, UniProt Q13422+Q96SW2).
T2 construct: mScarlet (C, cleaved yes); expressed in transfected cells
Description: Stable cell line fluorescent reporter degradation assay, IKZF1. It is filed as cell-based. The following applies: HEK 293T IKZF1-mNeonGreen reporter cells, 24 hour incubation, calculated visually from the curves; for Dmax at 10 µM: 10 micromolar.
Text: as §1, §2, §3, §4, §5

In a further test the target is T3, cereblon (NanoLuc-CRBN) (Homo sapiens, UniProt Q96SW2).
T3 construct: host or cells: HEK293T
T3 sequence (Q96SW2 whole entry): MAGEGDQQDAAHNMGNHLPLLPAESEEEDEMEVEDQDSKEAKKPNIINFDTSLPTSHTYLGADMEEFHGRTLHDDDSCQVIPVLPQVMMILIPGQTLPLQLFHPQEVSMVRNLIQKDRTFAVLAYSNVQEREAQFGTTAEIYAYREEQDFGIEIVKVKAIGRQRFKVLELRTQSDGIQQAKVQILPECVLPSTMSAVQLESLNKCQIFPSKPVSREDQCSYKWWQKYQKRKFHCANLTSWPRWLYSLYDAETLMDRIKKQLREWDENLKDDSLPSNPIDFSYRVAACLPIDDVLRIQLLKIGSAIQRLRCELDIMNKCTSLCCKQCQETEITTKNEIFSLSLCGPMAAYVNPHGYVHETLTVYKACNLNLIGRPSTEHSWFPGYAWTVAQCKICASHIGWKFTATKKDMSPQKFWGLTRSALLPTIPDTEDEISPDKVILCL
Kind of test: NanoBRET CRBN Cellular Target Engagement Assay. It is filed as binding. Conditions: compound tested at 10 μM, HEK293T cells transfected with NanoLuc-CRBN, 2 hr incubation; for remaining activity at 10 µM: lower = higher affinity, read-out: % tracer bound At the end of assay; for inhibition at 10 µM: read-out: % tracer removed From CBLN. The text has this:
The following example measures the extent to which a test compound of this invention binds to cereblon. In this example, a commercially available cereblon binding test kit (Promega Corporation, Madison, Wis., USA) was used but adapted to a 384 well format.
The kit comprises a tracer that binds to cereblon to form a tracer-cereblon complex. This complex is reversible. Upon addition of the test compound, competition between the tracer and the test compound for the binding site(s) on cereblon occurs. The extent of tracer release from cereblon correlates to the affinity of test compound to bind to cereblon. The higher the affinity, the more tracer is released from cereblon.
The assay is a homogenous cell-based assay that used bioluminescence resonance energy transfer (BRET) to measure cereblon target compound binding which causes loss of BRET. Lower BRET values correlate to higher loss of tracer bound to cereblon and, accordingly, higher the levels of target compound binding to cereblon.
The specifics of the assay include HEK293T cells were transfected with a NanoLuc-CRBN expression plasmid using Fugene as described. Approximately 24 hr later, transfected cells were washed with 1× Phosphate Buffered Saline (PBS) and harvested using trypsin. Cells were resuspended in Opti-MEM (available from Thermo Fisher Scientific) at a concentration of 2×10^5 cells/mL. A ratio of 1 part 100× Tracer to 4 parts NanoBRET Tracer Dilution Buffer was used to make a 20× Tracer stock. Next, 40 μl cells per well containing 1× tracer was dispensed into 384 well white tissue culture treated plates. Compounds were then dispensed using a D330e Digital Dispenser (Tecan Trading AG) and plates were allowed to incubate for 2 hr at 37° C., 5% CO2. Immediately prior to BRET measurements, a 3× Complete NanoBret Nano-Glo Substrate stock in Opti-MEM was prepared and 20 μl per well of substrate was subsequently added to the assay plates. Following a 2-3 minute incubation at room temperature, donor (450 nm) and acceptor (610 nm) emission values were read on a CLARIOStar multimode plate reader (BMG) in luminescence mode. Data were converted to milliBRET units by dividing acceptor emission values by donor emission and multiplying by 1000. […]
A general note: BRET reads energy transfer from a luciferase to a nearby fluorophore.

Molecules are shown by their SMILES.

The values below come from patent US11807620B2, “Quinazolinone compounds and related compounds” (PLEXIUM, INC., priority 2020, dated 2023).

A word on the Dmax: it is the largest share of the target that was removed.

T1 sequence (Q9UKT9 whole entry): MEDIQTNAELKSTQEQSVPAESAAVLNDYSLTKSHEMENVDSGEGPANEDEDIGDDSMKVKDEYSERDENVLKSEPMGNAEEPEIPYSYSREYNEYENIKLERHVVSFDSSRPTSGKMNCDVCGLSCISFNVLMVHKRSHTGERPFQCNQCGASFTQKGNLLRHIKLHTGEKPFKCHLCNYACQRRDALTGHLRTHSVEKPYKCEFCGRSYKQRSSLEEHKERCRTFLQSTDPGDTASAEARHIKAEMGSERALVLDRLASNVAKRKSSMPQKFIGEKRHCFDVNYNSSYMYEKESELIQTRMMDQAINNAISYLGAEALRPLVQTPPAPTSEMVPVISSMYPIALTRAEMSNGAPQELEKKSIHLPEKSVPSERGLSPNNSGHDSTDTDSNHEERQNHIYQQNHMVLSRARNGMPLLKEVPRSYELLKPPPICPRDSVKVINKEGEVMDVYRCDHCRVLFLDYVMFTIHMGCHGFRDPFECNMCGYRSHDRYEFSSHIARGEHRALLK
T1 sequence (Q96SW2 whole entry): as the sequence (Q96SW2 whole entry) above
T1 sequence (Q16531 whole entry partner): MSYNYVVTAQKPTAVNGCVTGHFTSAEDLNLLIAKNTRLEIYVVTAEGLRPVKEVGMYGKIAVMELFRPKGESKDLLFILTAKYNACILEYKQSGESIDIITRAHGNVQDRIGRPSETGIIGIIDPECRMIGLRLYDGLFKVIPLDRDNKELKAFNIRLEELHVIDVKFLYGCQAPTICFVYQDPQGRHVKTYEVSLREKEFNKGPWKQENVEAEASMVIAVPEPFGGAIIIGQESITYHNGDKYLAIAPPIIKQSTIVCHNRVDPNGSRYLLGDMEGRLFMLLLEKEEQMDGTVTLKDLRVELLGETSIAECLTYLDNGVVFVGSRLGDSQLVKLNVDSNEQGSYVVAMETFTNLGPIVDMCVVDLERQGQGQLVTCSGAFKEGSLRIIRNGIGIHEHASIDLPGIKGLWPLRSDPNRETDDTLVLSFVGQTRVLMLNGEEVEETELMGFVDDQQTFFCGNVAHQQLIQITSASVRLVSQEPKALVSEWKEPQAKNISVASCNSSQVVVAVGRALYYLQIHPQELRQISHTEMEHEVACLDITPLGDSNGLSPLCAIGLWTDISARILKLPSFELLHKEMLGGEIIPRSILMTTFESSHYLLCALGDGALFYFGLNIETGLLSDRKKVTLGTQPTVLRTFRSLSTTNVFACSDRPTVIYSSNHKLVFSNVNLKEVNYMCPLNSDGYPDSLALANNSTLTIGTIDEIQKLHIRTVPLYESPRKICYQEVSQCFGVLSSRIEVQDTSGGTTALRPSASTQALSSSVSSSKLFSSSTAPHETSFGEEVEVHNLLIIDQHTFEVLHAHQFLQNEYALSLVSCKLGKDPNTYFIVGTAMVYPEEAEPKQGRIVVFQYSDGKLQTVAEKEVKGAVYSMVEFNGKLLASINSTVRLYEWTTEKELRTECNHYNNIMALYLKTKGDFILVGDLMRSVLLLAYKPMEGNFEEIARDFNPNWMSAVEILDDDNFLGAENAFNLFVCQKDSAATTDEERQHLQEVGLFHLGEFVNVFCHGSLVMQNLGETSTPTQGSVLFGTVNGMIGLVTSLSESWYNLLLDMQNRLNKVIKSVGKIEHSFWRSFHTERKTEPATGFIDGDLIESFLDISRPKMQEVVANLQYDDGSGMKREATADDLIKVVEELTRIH
T2 sequence (Q13422 whole entry): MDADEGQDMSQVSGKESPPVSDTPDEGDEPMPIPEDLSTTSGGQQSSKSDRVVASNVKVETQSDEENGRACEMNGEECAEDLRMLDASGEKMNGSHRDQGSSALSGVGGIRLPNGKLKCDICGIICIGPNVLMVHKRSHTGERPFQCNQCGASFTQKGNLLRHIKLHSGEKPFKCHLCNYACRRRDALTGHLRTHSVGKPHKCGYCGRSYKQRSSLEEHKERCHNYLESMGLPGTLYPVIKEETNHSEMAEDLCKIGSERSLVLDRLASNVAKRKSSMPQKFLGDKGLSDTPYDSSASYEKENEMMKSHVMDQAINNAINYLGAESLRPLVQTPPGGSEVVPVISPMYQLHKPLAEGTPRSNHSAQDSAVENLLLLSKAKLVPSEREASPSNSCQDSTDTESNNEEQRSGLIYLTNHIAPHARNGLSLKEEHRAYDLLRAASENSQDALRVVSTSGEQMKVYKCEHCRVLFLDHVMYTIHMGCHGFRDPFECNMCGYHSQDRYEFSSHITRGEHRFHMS
T2 sequence (Q96SW2 whole entry): as the sequence (Q96SW2 whole entry) above
T2 sequence (Q16531 whole entry partner): as the sequence (Q16531 whole entry partner) above

In the case of `COc1ccc(CNc2cccc3nc(C)n(C4CCC(=O)NC4=O)c(=O)c23)cc1` (centres unmarked) [Example 1, 3-(5-((4-methoxybenzyl)amino)-2-methyl-4-oxoquinazolin-3(4H)-yl)piperidine-2,6-dione], on IKZF3 (Aiolos), the Dmax at 10 µM was 91.1%. In addition, on IKZF1 (Ikaros), the Dmax at 10 µM is 89.1%. Moreover, at cereblon (NanoLuc-CRBN), the remaining activity at 10 µM was 47.3% and the inhibition at 10 µM stood at 52.7%.
As to `Cc1nc2cccc(NCc3ccc(F)cc3)c2c(=O)n1C1CCC(=O)NC1=O` (centres unmarked) [Example 4, 3-(5-((4-fluorobenzyl)amino)-2-methyl-4-oxoquinazolin-3(4H)-yl)piperidine-2,6-dione], the Dmax at 10 µM on IKZF3 (Aiolos) (HEK-293T, 24 h) is 95.8%. Also, on IKZF1 (Ikaros) (HEK-293T, 24 h), the greatest degradation seen (Dmax) at 10 µM is 92.4%. Further, at cereblon (NanoLuc-CRBN), the remaining activity at 10 µM was found to be 40.9% and the inhibition at 10 µM is 59.1%.
For `Cc1nc2cccc(NCc3cccc(F)c3)c2c(=O)n1C1CCC(=O)NC1=O` (centres unmarked) [Example 5, 3-(5-((3-fluorobenzyl)amino)-2-methyl-4-oxoquinazolin-3(4H)-yl)piperidine-2,6-dione], in that order: 93.6%, 89.7%, 23.8% and 76.2%.
In the same order, the values of `Cc1cccc(CNc2cccc3nc(C)n(C4CCC(=O)NC4=O)c(=O)c23)c1` (centres unmarked) [Example 7, 3-(2-methyl-5-((3-methylbenzyl)amino)-4-oxoquinazolin-3(4H)-yl)piperidine-2,6-dione] are 94.3%, 76.8%, 22.9% and 77.1%.
Consider `Cc1nc2cccc(NCc3ccc(CN4CCN(c5ccc(C#N)cc5F)CC4)cc3)c2c(=O)n1C1CCC(=O)NC1=O` (centres unmarked) [Example 34, 4-(4-(4-(((3-(2,6-dioxopiperidin-3-yl)-2-methyl-4-oxo-3,4-dihydroquinazolin-5-yl)amino)methyl)benzyl)piperazin-1-yl)-3-fluorobenzonitrile], for which the Dmax at 10 µM at IKZF3 (Aiolos) is 93.2%. For the same compound, the Dmax at 10 µM at IKZF1 (Ikaros) is 93.1%. In addition, at cereblon (NanoLuc-CRBN), the remaining activity at 10 µM came out at 27.4% and the inhibition at 10 µM was 72.6%.
For the compound `Cc1nc2cccc(NCc3ccc(CN4CC(N5CCOCC5)C4)cc3F)c2c(=O)n1C1CCC(=O)NC1=O` (centres unmarked) [Example 96, 3-(5-((2-fluoro-4-((3-morpholinoazetidin-1-yl)methyl)benzyl)amino)-2-methyl-4-oxoquinazolin-3(4H)-yl)piperidine-2,6-dione], the “% Degradation IKZF3 @ 10 micromolar” value on IKZF3 (Aiolos) was 92.6%. Besides, the “% Degradation IKZF1 @ 10 micromolar” value at IKZF1 (Ikaros) is given as 92.6%.
For `Cc1nc2cccc(NCc3ccc(CN4CCOCC4)cc3)c2c(=O)n1C1CCC(=O)NC1=O` (centres unmarked) [compound 32, 3-(2-methyl-5-((4-(morpholinomethyl)benzyl)amino)-4-oxoquinazolin-3(4H)-yl)piperidine-2,6-dione], the Dmax at 10 µM was 91.9% at IKZF3 (Aiolos) and 93.8% on IKZF1 (Ikaros).
For `Cc1nc2cccc(NCc3cccc(CN4CCN(c5ccc(C#N)cc5F)CC4)c3)c2c(=O)n1C1CCC(=O)NC1=O` (centres unmarked) [compound 33, 4-(4-(3-(((3-(2,6-dioxopiperidin-3-yl)-2-methyl-4-oxo-3,4-dihydroquinazolin-5-yl)amino)methyl)benzyl)piperazin-1-yl)-3-fluorobenzonitrile], in that order: 87.4% and 95.5%.
Take `O=C1CCC(n2nnc3cccc(NCc4ccc(CN5CCOCC5)cc4)c3c2=O)C(=O)N1` (centres unmarked) [compound 36, 3-(5-((4-(morpholinomethyl)benzyl)amino)-4-oxobenzo[d][1,2,3]triazin-3(4H)-yl)piperidine-2,6-dione]: the Dmax at 10 µM at IKZF3 (Aiolos) (HEK-293T, 24 h) is 87.4%; on IKZF1 (Ikaros) (HEK-293T, 24 h), 88.2%.
In the same order, the values of `Cc1nc2cccc(NCc3ccc(CN4CC(N5CCOCC5)C4)cc3F)c2c(=O)n1C1CCC(=O)NC1=O` (centres unmarked) [compound 91, 3-(5-((2-fluoro-4-((3-morpholinoazetidin-1-yl)methyl)benzyl)amino)-2-methyl-4-oxoquinazolin-3(4H)-yl)piperidine-2,6-dione] are 96.3% and 97.1%.
In the same order, the values of `O=C1CCC(n2cnc3cccc(NCc4ccc(CN5CC(N6CCOCC6)C5)cc4F)c3c2=O)C(=O)N1` (centres unmarked) [compound 101, 3-(5-((2-fluoro-4-((3-morpholinoazetidin-1-yl)methyl)benzyl)amino)-4-oxoquinazolin-3(4H)-yl)piperidine-2,6-dione] are 92.4% and 78.4%.
